67 compounds from ChEMBL document CHEMBL3507680, “University of Dundee, Gates Library screen for HepG2 cell viability” can be followed below.

This data set is described as follows: Human HepG2 cell viability assay in 384 well format. It is filed as toxicity, cell-based. The arrangement: dose 125 nL, time 70.5 hour; cytotoxicity at 70.5 h: concentration not given beside the values. Conditions: HepG2 cells, read-out: Inhibition.
`CC(=O)N1CC[C@H]2CC(=O)N(Cc3ccc4c(c3)OCO4)CC[C@H]2C1`: the cytotoxicity at 70.5 h was -3.96%. `CCNC(=O)N1CC[C@H]2CC(=O)N(CCN3CCNC3=O)CC[C@H]2C1`: the cytotoxicity at 70.5 h is -3.51%. For the compound `CC(C)(C)CC(=O)N1CC[C@H]2CC(=O)N(CCc3c[nH]cn3)CC[C@H]2C1`, the cytotoxicity at 70.5 h was -4.11%. The value for `COc1ccc(-c2noc([C@@H]3C[C@@H](O)CN3C3CCN(C)CC3)n2)cc1` was -2.03%; that for `COCC(=O)N[C@H]1C[C@H]2C(=O)NC[C@@H](CCC(=O)NC3CC3)N2C1` was -2.9%; that for `CN1C[C@H](O)C[C@H]1c1nc(-c2ccc3c(c2)OCO3)no1` was -0.612%. In the case of `CC(C)(C)c1cc(C[C@H]2CNCC[C@H]2CC(=O)N2CCCCC2)no1` it was -1.6%; in that of `CCN(CC)C(=O)CC[C@@H]1CNC(=O)[C@@H]2C[C@H](NC(=O)C3CC3)CN12`, -2.96%; in that of `CCN(CC)CC[C@H]1CN(C(=O)CC(C)(C)C)CC[C@H]1CC(=O)O`, -4.24%. The value for `CN1C[C@@H](NC(=O)CC(C)(C)C)C[C@H]1c1nc(-c2cnccn2)no1` was -0.594%; that for `O=C1N[C@@H]2CCN(C(=O)c3ccccc3)[C@@H]2C(=O)N1Cc1ccccc1` was -5.37%. On to `COCC(=O)N1CCN(C(=O)c2cccs2)[C@@H](C(=O)OC)C1`, for which the cytotoxicity at 70.5 h was -5%. In the case of `CC(=O)N1CC[C@H](c2nc3cc(C)ccc3o2)C1`, the cytotoxicity at 70.5 h worked out at 0.212%. For the compound `COC(=O)[C@@H]1Cc2ncn(C)c2CN1S(=O)(=O)c1cccs1`, the cytotoxicity at 70.5 h was -1.34%.

Consider `CN1C[C@@H](F)[C@@H](OCc2nc3ccccc3n2C)C1`, for which the cytotoxicity at 70.5 h is -2.45%. The value for `FC(F)(F)c1ccc2[nH]c([C@H]3CCNC3)nc2c1` was -2.06%. In the case of `c1ccc(-c2noc([C@@H]3Cc4nc[nH]c4CN3)n2)cc1` it was -14%. In the case of `CS(=O)(=O)c1ccc(-c2c[nH]c([C@@H]3COCCN3)n2)cc1` it was -8.19%. With `CCC(=O)NCCc1cc(N2CCN(C(C)=O)CC2)nc(C2CC2)n1`, the cytotoxicity at 70.5 h is -1.36%. Take `CNc1cc(CCNC(=O)c2cccnc2)nc(-c2ccncc2)n1`: the cytotoxicity at 70.5 h is -7.53%. The value for `Cc1cc(C2CCCN(C(=O)c3cnn(C)c3)C2)ccn1` (configuration not stated) was -8.77%.

For `CNC(=O)c1ccc(C2CN(C(=O)c3cncs3)CCO2)nc1` (configuration not stated), the cytotoxicity at 70.5 h was -3.2%. In the case of `Cc1cc(C2CCCN(C(=O)c3cnccn3)C2)ccn1` (configuration not stated) it was -0.249%. The value for `Cc1nc(C(=O)N2CCCC(c3cccc(-n4ccnc4)n3)C2)co1` (configuration not stated) was 4.94%; that for `CCOCC(=O)N1C[C@@H](O)[C@H](N(C)Cc2ccc(OC)cc2)C1` was -13.7%. In the case of `O=C(Cn1c(=O)n(Cc2ccco2)c2ncccc21)Nc1ccccn1` it was -4.41%; in that of `Cn1ccc(C(=O)N2CCCC(Cc3cccc4ncccc34)C2)n1` (configuration not stated), 35.2%. As for `CN1CC[C@H](c2ccccc2)[C@@H]2[C@H]1CCCCN2C(=O)c1cnccn1`, the cytotoxicity at 70.5 h was -8.44%.

Consider `CCOCCCNc1nc(O)cc(C2CC(=O)N(C)C2)n1` (configuration not stated), for which the cytotoxicity at 70.5 h is 24.8%. In the case of `Cc1nc(C2CCN(C(=O)c3cccnc3)CC2)c2sccn12` it was 0.00673%.

As to `Fc1ccc(CN2CCC(c3n[nH]c4nccnc34)CC2)cc1F`, the cytotoxicity at 70.5 h was found to be 7.75%. In the case of `O=C1NCC2(CCCN(Cc3ccccc3F)C2)Oc2ccccc21` (configuration not stated) it was -14.5%. In the case of `Cc1csc2c(=O)n3c(nc12)CCN(C(=O)c1cccnc1)CC3` it was -19.9%. In the case of `NC(=O)C1CCCN(Cc2c(-c3ccco3)[nH]c3ncccc23)C1` (configuration not stated) it was -10.6%. In the case of `CS(=O)(=O)N1CCC(C(=O)NC(Cc2ccsc2)c2nccs2)CC1` (configuration not stated), the cytotoxicity at 70.5 h is -20.6%. In the case of `Fc1cccc(CN2CCC(c3n[nH]c4ncccc34)CC2)c1F` it was -9.75%; in that of `O=C(NC(Cc1ccsc1)c1nccs1)C1CCOCC1` (configuration not stated), -14.6%; in that of `Cc1ccc2cc(CNCCCN3CCOCC3)c(=O)[nH]c2c1`, -13%. The value for `COCc1cc(O)nc(C2CCCN(Cc3cc(OC)ccc3F)C2)n1` (configuration not stated) was -4.84%; that for `CN(C)c1ncc(CN2CCC(c3nnsc3S(C)(=O)=O)CC2)cn1` was -19.4%. As to `Cc1ccsc1-c1nnc(C2CCN(Cc3ccc(F)cc3)CC2)o1`, the cytotoxicity at 70.5 h was -21.5%. The value for `CN(C)Cc1ccnc(C2CCCN2Cc2cc[nH]n2)n1` (configuration not stated) was -1.65%; that for `Cc1ccccc1-c1cncc(C2CCN(C)CC2)n1` was -14.3%; that for `CO[C@H]1CN(C(=O)c2ccc3oc(C)cc3c2)CC[C@@]12CCCO2` was -13.4%. In the case of `O=C(COc1cccc(F)c1)N1C[C@@H](O)[C@H](N2CCCC2)C1` it was -10.1%; in that of `COc1cccc(OC)c1C(=O)N1CCN(c2ccccc2F)CC1`, 39%. Take `CCc1cc(O)nc(C2CCCN2C(=O)c2cc(C)no2)n1` (configuration not stated): the cytotoxicity at 70.5 h was determined as 8.47%. The value for `CCc1cc(C(=O)N2CCCC2c2nc(C)c(F)c(O)n2)on1` (configuration not stated) was 4.3%; that for `Nc1nc2nc(C3CCCN(C(=O)c4cscn4)C3)ccc2s1` (configuration not stated) was 9.1%. In the case of `CNc1cccc(C2CCCN(C(C)=O)C2)n1` (configuration not stated) it was -19.3%; in that of `CCC(=O)N1CCCC1c1nccnc1Nc1nc(C)cc(C)n1` (configuration not stated), -14%. In the case of `CN(Cc1ccc(F)cc1)[C@@H]1CN(C(=O)c2cccs2)C[C@H]1O` it was -17.9%; in that of `CN(c1ccncn1)C1CC2(CCN(C(=O)c3ccsc3)C2)C1` (configuration not stated), -28.9%; in that of `NCc1cn(-c2ccccc2C(=O)NCc2cccc(Cl)c2)cn1`, -13.7%.

Regarding `Cc1cccc(C(=O)N2CCC(Cc3cnc4[nH]ccc4c3)CC2)n1`, the cytotoxicity at 70.5 h was -7.84%. In the case of `Cc1cncc(C2CCCN(C(=O)c3c[nH]c(=O)[nH]c3=O)C2)n1` (configuration not stated) it was -22.8%.

Regarding `COc1cccc(S(=O)(=O)N2CCC(O)(CN(C)C)C2)c1` (configuration not stated), the cytotoxicity at 70.5 h was -19.7%. In the case of `Cc1nc(O)c2nnn(C[C@H]3CCCN3C(=O)C(C)(C)C)c2n1` it was -13.1%; in that of `COc1ccc(CN2CCC3(CC(Nc4ccncn4)C3)C2)c(OC)c1` (configuration not stated), -6.97%; in that of `O=C1CN(Cc2ccc(-c3ccccc3C(=O)O)cc2)CCN1`, 37.1%.

On to `CNc1ccc(CC2CCCN(C(=O)c3cnc(C)nc3)C2)nn1` (configuration not stated), for which the cytotoxicity at 70.5 h was -6.58%. In the case of `CC(=O)N1CCC(c2cc(C(F)(F)F)n3ccnc3n2)CC1` it was 5.43%; in that of `Cc1cc(-c2ccc(C(=O)O)cc2)nc(C2CCCN(C(C)C)C2)n1` (configuration not stated), -9.15%. In the case of `CCCC(=O)N1CCC(O)(Cn2c(CC)nc3ccccc3c2=O)CC1` it was -16.7%.

As for `COc1cccc(-c2noc(C3CCN(Cc4cccs4)C3)n2)c1` (configuration not stated), the cytotoxicity at 70.5 h came to 8.44%.

As for `CC(C)(C)C(=O)N1C[C@H](c2ccsc2)[C@H]2CN(Cc3cccs3)CC[C@H]21`, the cytotoxicity at 70.5 h was 0.661%. Take `Cc1ccc(CN(Cc2ccccn2)C2CC(C)(C)NC(C)(C)C2)s1`: the cytotoxicity at 70.5 h is -7.96%.
